US20240409482A1, “Novel Compound and Organic Light Emitting Device Comprising the Same” (LG Chem, Ltd., priority 2022, published 2024)

Assay: Solubility measurement in cyclohexanone
Format: physicochemical
Set-up: key to Solubility (1.3 wt %): “O” means that the compound was easily dissolved in cyclohexanone; “A” means that the compound was dissolved in cyclohexanone at 80° C.; “X” means that the compound is not soluble in cyclohexanone
Details: cyclohexanone, concentration of 1.3 wt %, room temperature
Protocol: It was confirmed whether each of Compounds 1 to 14, Compound A and Compound B prepared in Preparation Examples could be dissolved in cyclohexanone at a concentration of 1.3 wt % at 25° C., and the results are shown in Table 1 below. At this time, “O” means that the compound was easily dissolved in cyclohexanone, “A” means that the compound was dissolved in cyclohexanone at 80° C., and “X” means that the compound is not soluble in cyclohexanone.

Compound	Solubility in cyclohexanone, result in words
c1ccc(-c2c3ccccc3c(-c3ccc(-c4ccc5cc(-c6ccc7cc(-c8c9ccccc9c(-c9ccccc9)c9ccccc89)ccc7c6)ccc5c4)cc3)c3ccccc23)cc1 [Compound A]	could not be dissolved at room temperature
c1ccc2c(-c3ccc(-c4c5ccccc5c(-c5ccc(-c6cccc7c(-c8cccc9ccc(-c%10ccc(-c%11c%12ccccc%12c(-c%12cccc%13ccccc%12%13)c%12ccccc%11%12)cc%10)cc89)cccc67)cc5)c5ccccc45)cc3)cccc2c1 [Compound B, reference compound]	could not be dissolved at room temperature

Same assay, conditions: in cyclohexanone at a concentration of 1.3 wt % at 25° C.

Compound	Solubility (1.3 wt %)
c1cc(-c2ccc(-c3c4ccccc4c(-c4cccc5ccccc45)c4ccccc34)cc2)c2cc(-c3ccc4cccc(-c5c6ccccc6c(-c6ccc7oc8ccccc8c7c6)c6ccccc56)c4c3)ccc2c1 [Compound 8]	◯
c1ccc2cc(-c3ccc(-c4c5ccccc5c(-c5cccc6ccc(-c7ccc8cccc(-c9c%10ccccc%10c(-c%10ccc%11ccccc%11c%10)c%10ccccc9%10)c8c7)cc56)c5ccccc45)cc3)ccc2c1 [Compound 2]	◯
c1cc(-c2cccc3ccc(-c4ccc5cccc(-c6c7ccccc7c(-c7ccc8ccccc8c7)c7ccccc67)c5c4)cc23)cc(-c2c3ccccc3c(-c3ccc4ccccc4c3)c3ccccc23)c1 [Compound 5]	◯
c1cc(-c2ccc(-c3c4ccccc4c(-c4cccc5ccccc45)c4ccccc34)cc2)c2ccc(-c3ccc4c(-c5c6ccccc6c(-c6ccc7oc8ccccc8c7c6)c6ccccc56)cccc4c3)cc2c1 [Compound 12]	◯
c1cc(-c2cccc3ccc(-c4ccc5cccc(-c6c7ccccc7c(-c7ccc8oc9ccccc9c8c7)c7ccccc67)c5c4)cc23)cc(-c2c3ccccc3c(-c3ccc4ccccc4c3)c3ccccc23)c1 [Compound 7]	◯
c1ccc2cc(-c3c4ccccc4c(-c4cccc5ccc(-c6ccc7cccc(-c8c9ccccc9c(-c9ccc(-c%10cccc%11ccccc%10%11)cc9)c9ccccc89)c7c6)cc45)c4ccccc34)ccc2c1 [Compound 3]	◯
c1ccc2cc(-c3c4ccccc4c(-c4ccc5ccc(-c6ccc7ccc(-c8c9ccccc9c(-c9ccc(-c%10cccc%11ccccc%10%11)cc9)c9ccccc89)cc7c6)cc5c4)c4ccccc34)ccc2c1 [Compound 10]	◯
c1ccc2cc(-c3c4ccccc4c(-c4ccc(-c5cccc6cc(-c7ccc8c(-c9c%10ccccc%10c(-c%10ccc%11ccccc%11c%10)c%10ccccc9%10)cccc8c7)ccc56)cc4)c4ccccc34)ccc2c1 [Compound 11]	◯

Further lines, results first:

Solubility (1.3 wt %)	Compound
X	c1ccc(-c2c3ccccc3c(-c3ccc(-c4ccc5cc(-c6ccc7cc(-c8c9ccccc9c(-c9ccccc9)c9ccccc89)ccc7c6)ccc5c4)cc3)c3ccccc23)cc1 [Compound A]
Δ	c1ccc2c(-c3ccc(-c4c5ccccc5c(-c5ccc(-c6cccc7c(-c8cccc9ccc(-c%10ccc(-c%11c%12ccccc%12c(-c%12cccc%13ccccc%12%13)c%12ccccc%11%12)cc%10)cc89)cccc67)cc5)c5ccccc45)cc3)cccc2c1 [Compound B, reference compound]
◯	c1ccc2c(-c3c4ccccc4c(-c4ccc(-c5ccc6ccc(-c7ccc8ccc(-c9c%10ccccc%10c(-c%10ccc%11oc%12ccccc%12c%11c%10)c%10ccccc9%10)cc8c7)cc6c5)cc4)c4ccccc34)cccc2c1 [Compound 9]
◯	c1ccc2cc(-c3c4ccccc4c(-c4ccc(-c5cccc6ccc(-c7ccc8cccc(-c9c%10ccccc%10c(-c%10ccc%11ccccc%11c%10)c%10ccccc9%10)c8c7)cc56)cc4)c4ccccc34)ccc2c1 [Compound 1]
◯	c1cc(-c2cccc3ccc(-c4ccc5cccc(-c6c7ccccc7c(-c7ccc8ccccc8c7)c7ccccc67)c5c4)cc23)cc(-c2c3ccccc3c(-c3cccc4ccccc34)c3ccccc23)c1 [Compound 4]
◯	c1cc(-c2ccc(-c3c4ccccc4c(-c4cccc5ccccc45)c4ccccc34)cc2)c2cc(-c3ccc4cccc(-c5c6ccccc6c(-c6cccc7oc8ccccc8c67)c6ccccc56)c4c3)ccc2c1 [Compound 6]
